Results as given in the supplement of paper PMC10307832.

Tests used:
Assay in all cases: relative viability (nuclei count vs DMSO), 5 days (fraction); higher = more cells survive
[1] = compound: CC1=CC=C(C=C1)C(=O)CN2C3=C(CCCC3)SC2=N [Pifithrin_alpha] + N=C(N)NC(=N)NCCc1ccccc1 [Phenformin] (partner 250 µM)
Summary of the method: (§1)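 Each reported value is a median over duplicate plates. It expresses relative viability: treated-well nuclei count divided by vehicle-well nuclei count. Lung cancer cell lines in 1536-well plates were dosed by pin tool a day after seeding, alone with one drug or with a fixed anchor-drug dose plus five library-drug doses (not always all listed) in √10 steps, and nuclei were counted after 5 days.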

[2] = compound: CNC(=O)c1ccccc1Sc1ccc2c(/C=C/c3ccccn3)n[nH]c2c1 [Axitinib] + CCNC(=O)c1noc(-c2cc(C(C)C)c(O)cc2O)c1-c1ccc(CN2CCOCC2)cc1 [Luminespib] (partner 0.01 µM)
Summary of the method: as §1

[3] = compound: Nc1nc(Nc2ccc3c(c2)CC[C@@H](N2CCCC2)CC3)nn1-c1cc2c(nn1)-c1ccccc1CCC2 [Bemcentinib] + C[C@@H](Oc1cc(-c2cnn(C3CCNCC3)c2)cnc1N)c1c(Cl)ccc(F)c1Cl [Crizotinib] (partner 1 µM)
Summary of the method: as §1

[4] = compound: CC1=CC=C(C=C1)C(=O)CN2C3=C(CCCC3)SC2=N [Pifithrin_alpha] + Nc1ncn([C@H]2C[C@H](O)[C@@H](CO)O2)c(=O)n1 [Decitabine] (partner 2 µM)
Summary of the method: as §1

With NCI-H650 the relative viability ([1]; first compound 3.162 µM) was 0.49, the relative viability ([1]; first compound 10 µM) was 0.454 and the relative viability ([1]; first compound 31.62 µM) was 0.421. For the same cell line, the relative viability ([1]; first compound 100 µM) was 0.421, the relative viability ([2]; first compound 0.005 µM) was 0.798 and the relative viability ([2]; first compound 0.01581 µM) was 0.766. The relative viability ([2]; first compound 0.05 µM) was 0.589, the relative viability ([2]; first compound 0.1581 µM) was 0.764 and the relative viability ([2]; first compound 0.5 µM) was 0.822. For the same cell line, the relative viability ([3]; first compound 0.04 µM) was 0.721, the relative viability ([3]; first compound 0.1265 µM) was 0.785 and the relative viability ([3]; first compound 0.4 µM) was 0.679. It also gave a relative viability ([3]; first compound 1.265 µM) of 0.703, a relative viability ([3]; first compound 4 µM) of 0.618 and a relative viability ([4]; first compound 3.162 µM) of 0.323. For the same cell line, the relative viability ([4]; first compound 10 µM) was 0.335, the relative viability ([4]; first compound 31.62 µM) was 0.235 and the relative viability ([4]; first compound 100 µM) was 0.275.
